From paper PMC8634879, “Design, Synthesis, and Biological Evaluation of Pyrano[2,3-c]-pyrazole–Based RalA Inhibitors Against Hepatocellular Carcinoma” (Frontiers in Chemistry, 2021) come the findings set out here.

In one data set the target is T1, RalA (Homo sapiens, UniProt P11233).
T1 construct: expressed in transfected cells; host or cells: HepG2 (from b6; the methods paragraph names no cell line)
T1 sequence (P11233 1-203 limits assumed): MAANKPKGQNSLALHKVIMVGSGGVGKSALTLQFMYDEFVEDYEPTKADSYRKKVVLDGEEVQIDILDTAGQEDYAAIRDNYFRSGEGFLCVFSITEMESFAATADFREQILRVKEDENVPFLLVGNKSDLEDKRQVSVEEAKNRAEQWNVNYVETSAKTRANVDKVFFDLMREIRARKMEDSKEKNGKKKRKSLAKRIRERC
As to the kind of experiment: GST pulldown of activated RalA. The data set is classed as cell-based. How it is done:
GST pulldown assays were performed to assess 4p RalA/B inhibitory capacities. […] Only activated RalA was suppressed after incubation with 0.5 μM of compound 4p (Figure 5A).
(§1) The in vitro RalA/B bioactivity assays were performed following methods outlined in previous reports. ([Yan et al., 2016]; [Zhang et al., 2018]; [Walsh et al., 2019]; [Bum-Erdene et al., 2020]). In brief, the lysates of the test compound or vehicle-treated cells were cleared using cold centrifugation, and supernatants were collected. An RalBP1 solution was added to 96-well plates and incubated for 1–2 h, and then the plates were washed thrice using ELISA buffer. Next, cellular lysates were added, and samples were incubated overnight at 4°C. Then, ice-cold mouse anti-FLAG antibody was added, and samples were incubated for one more hour. After subsequent washing with ELISA buffer thrice, the HRP-conjugated anti-mouse antibody was added, and samples were incubated for another hour. Then, the HRP substrate was added. Antigen–antibody reactions were quenched by the addition of sulfuric acid (2 mol/L). Remaining RalA/B was detected by the OD450 values which were collected by using a plate reader. Cell proliferation assays, colony formation assays, apoptosis assays, GST pulldown, and Western blotting were used following methods outlined in our previous reports. ([Zhou et al., 2015]; [Zhang et al., 2016]; [Yang et al., 2017]; [He et al., 2019]). Autophagy levels and protein immunoblotting were used following the methods mentioned in our previous reports ([Pan et al., 2018]; [Wang et al., 2018]; [Hao et al., 2019]; [Wang et al., 2019]; [Peng et al., 2020]). Detailed experimental procedures are described in supporting materials.

The test system of a further data set is SMMC-7721 cells. As to the kind of experiment: Cell proliferation assay (MTT), SMMC-7721. The data set is classed as cell-based. To be noted: Homo sapiens, average of at least three independent replicates ± SD, read-out: Anti-proliferative activities (IC50, μM) SMMC-7721. The procedure: The antibodies recognizing LC3, p62/SQSTM1, RalA, RalB, and GAPDH were purchased from Proteintech (Wuhan, China). HCC cell lines, including HepG2, Hep3B, Huh-7, and SMMC-7721, were obtained from the Chinese Center for Type Culture Collection (Wuhan, China) and cultured in DMEM (Dulbecco’s modified Eagle’s medium) with 10% FBS (fetal bovine serum) and streptomycin. Cytotoxicity assays were performed by using the MTT method as previously described.
as §1

The next data set has as its system HepG2 xenograft. As to the kind of experiment: HepG2 subcutaneous xenograft model. Type of data set: in vivo. The procedure:
Several reports have characterized RalA/B potential regulatory roles in autophagy ([Zhang et al., 2019]; [Pang et al., 2020]; [Zhang et al., 2020]). Considering the dual effect of HCC autophagy, we assessed changes in HepG2 cell autophagy levels after the addition of 0.5 or 2.0 μM of 4p, before incubation. Based on HepG2 cells’ TEM images with or without 4p (Figure 5B), autophagy vacuoles per cell decreased in the 4p-treated group (p < 0.01). After 4p treatments, LC3-II and ATG5 protein levels declined and SQSTM1 increased. […] In GFP-LC3–transfected HepG2 cells, cytoplasm LC3 fluorescent puncta numbers also declined after 4p treatments. […] The in vivo antitumor capacities of 4p were determined on a HepG2 subcutaneous xenograft model. The 4p intraperitoneal injections were set to 15 mg/kg and 60 mg/kg, according to in vitro results. […] The potential 4p molecular mechanisms were further validated using immunofluorescence and IHC analyses of tissue sections stained by antibodies against TUNEL, Ki-67, RalA, LC3-II, and SQSTM1. […] Therefore, the in vivo results were consistent with in vitro experiments.
Female Balb/c nude mice aged 6–8 weeks were purchased from Beijing Huafukang Co. Ltd. (Beijing, China). Animal-based experiments complied with the guidelines of the Animal Ethics Committee (Sichuan University), and all aspects were approved by the Animal Ethics Committee of West China Hospital of Sichuan University (China). In brief, HepG2 cells were injected subcutaneously in the dorsal flank of Balb/c nude mice (5*10^5 cells per mice). Tumor volumes were recorded every 2 days post cancer cell injection. After the therapeutic endpoint, all mice were euthanized, and tumor tissues were stripped, fixed in formalin, embedded in paraffin, and sectioned. The IHC and immunofluorescent staining methods were performed following methods as per our previous research, ([Zhang et al., 2019]; [Pan et al., 2020]; [Pang et al., 2020]; [Zhang et al., 2020]), and detailed experimental procedures are also described in supporting materials. […]
2. Western blotting analysis
For western blotting, the extracts of total protein from each sample were treated in accordance with the method we described previously. In short, the total proteins were loaded into the SDS-PAGE gel and separated through the different of their molecular weight in electrophoresis, after that the separated proteins were shifted into a PVDF membrane (Millipore, Burlington, MA, USA) and incubated through corresponding membrane react pathways. The resulted membranes reacted with major antibodies and HRP (horseradish peroxidase)-conjugated secondary antibodies. The expression profiles of target proteins can be identified through an enhanced chemiluminescence (ECL) substrate.
3. Immunohistochemistry and immunofluorescent assays
The histological sections of tumor tissue were immersed into EDTA antigen recovery buffer (pH 8.0) or citrate buffer (pH 6.0), and then microwave was used to recover antigen. Then the slide was incubated with the corresponding primary antibody at 37 ℃ for 30-40 min. Normal anti-rabbit or anti-mouse IgG was used as a negative control group. Immunohistochemical analysis was performed with diaminobenzidine solution after the sections was treated with HRP polymer as well as the second antibody for 30 min. Immunofluorescence (IF) test was carried out by treating slides with fluorescein combined with secondary antibody and detecting under fluorescence microscope. The IHC staining method is to use the corresponding primary antibody, as we reported in previous

For `COc1ccc(S(=O)(=O)NC2=C(C#N)C(c3ccc(C(F)(F)F)cc3)c3c(C)nn(-c4ccccc4)c3O2)cc1` (centres unmarked) [4p, N-(5-cyano-3-methyl-1-phenyl-4-(4-(trifluoromethyl)phenyl)-1,4-dihydropyrano[2,3-c]-pyrazol-6-yl)-4-methoxybenzenesulfonamide], the “activated RalA protein expression level” value at RalA (0.5 μM, only activated RalA, not RalB) is given as “suppressed”; at RalA (2.0 μM), “significantly suppressed”. The “total RalA expression” value at RalA (GST pulldown experiment) is “unchanged”. In addition, in the data set on SMMC-7721 cells, the IC50 is 5.38 ± 0.37 µM. The body weights entry in the data set on HepG2 xenograft (15 and 60 mg/kg i.p.) was “without significant changes”. Besides, in the data set with HepG2 xenograft (IHC), the “total RalA levels in tumor sections” value is recorded as “No clear changes”. Also, in the data set on HepG2 xenograft (both high- and low-dosage groups (60 and 15 mg/kg i.p.), p < 0.01), the “mean tumor weights compared to the control” value is reported as “notably declined”. Besides, the “TUNEL and SQSTM1 levels in tumor sections” value with HepG2 xenograft (high dosage group, immunofluorescence/IHC) is given as “increased”. The “LC3-II expression in tumor sections” value with HepG2 xenograft (high dosage group, p < 0.01) is on record as “decreased”. The “tumor growth inhibition (TGI)” value in the data set with HepG2 xenograft (high dosage, 60 mg/kg intraperitoneal injection) was found to be 63%; in the data set on HepG2 xenograft (low dosage, 15 mg/kg intraperitoneal injection) it was 39%.

By IC50 is commonly meant the concentration that gives 50% inhibition.
